Assay results as given in ChEMBL document CHEMBL5352416, “Benzo[b]thiophene-2-carboxamides as novel opioid receptor agonists with potent analgesic effect and reduced constipation” (Eur J Med Chem, 2022).

How the values were obtained:
Mu-type opioid receptor [1] = molecular target: T1, Mu-type opioid receptor (Homo sapiens, UniProt P35372); assay: Agonist activity at human mu opioid receptor expressed in CHO-K1 cells coexpressing Galpha15 assessed as increase in fluorescence of [ca2+]i measured for 1.52 sec by FLIPR calcium assay; format: functional, cell-based
Mu-type opioid receptor [2] = molecular target: T1, Mu-type opioid receptor; assay: Agonist activity at human mu opioid receptor expressed in CHO-K1 cells coexpressing Galpha15 assessed as increase in fluorescence of [ca2+]i by measuring maximum efficacy measured for 1.52 sec by FLIPR calcium assay relative to control; format: functional, cell-based; settings: filed as agonist

T1 sequence (P35372 whole entry): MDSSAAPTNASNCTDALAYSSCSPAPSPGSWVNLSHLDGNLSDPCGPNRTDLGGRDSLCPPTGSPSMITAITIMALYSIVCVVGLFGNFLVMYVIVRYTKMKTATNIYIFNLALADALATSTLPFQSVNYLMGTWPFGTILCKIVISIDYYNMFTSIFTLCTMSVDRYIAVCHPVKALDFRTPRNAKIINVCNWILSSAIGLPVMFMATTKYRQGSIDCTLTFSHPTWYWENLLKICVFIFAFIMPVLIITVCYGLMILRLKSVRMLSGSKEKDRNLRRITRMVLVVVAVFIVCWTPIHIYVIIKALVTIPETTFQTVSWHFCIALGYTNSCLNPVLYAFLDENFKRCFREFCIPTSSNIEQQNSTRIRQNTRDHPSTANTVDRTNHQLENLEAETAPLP

Compound | EC50 (Mu-type opioid receptor [1]) [µM] | Emax (Mu-type opioid receptor [2]) [%]
CN(C)C(CNC(=O)c1cc2ccccc2s1)c1ccc(Br)cc1 (configuration not stated) | 0.15 | 103
CN(C)C(CNC(=O)c1cc2ccccc2s1)C1CCCCC1 (configuration not stated) | 11.1 | 91
Cc1ccc2c(Cl)c(C(=O)NCC(c3ccccc3Cl)N(C)C)sc2c1 (configuration not stated) | 2.58 | 55
CN(C)C(CNC(=O)c1cc2ccccc2s1)c1ccc(Cl)cc1 (configuration not stated) | 1.26 | 112
CN(C)C(CNC(=O)c1cc2ccccc2s1)c1cccc(F)c1 (configuration not stated) | 1.49 | 106
CN(C)C(CNC(=O)c1sc2ccccc2c1Cl)c1ccccc1Cl (configuration not stated) | 0.36 | 93.8
Cc1cccc(C(CNC(=O)c2cc3ccccc3s2)N(C)C)c1 (configuration not stated) | 4.11 | 116

The remaining lines, values ahead:

EC50 (Mu-type opioid receptor [1]) [µM] | Emax (Mu-type opioid receptor [2]) [%] | Compound
2.31 | 130 | CN(C)C(CNC(=O)c1cc2ccccc2s1)c1cccc(Cl)c1 (configuration not stated)
1.89 | 58.4 | Cc1ccc2cc(C(=O)NCC(c3ccccc3Cl)N(C)C)sc2c1 (configuration not stated)
1.62 | 73.6 | Cc1ccc2c(Cl)c(C(=O)NCC(c3ccccc3)N(C)C)sc2c1 (configuration not stated)
3.86 | 99.5 | CN(C)C(CNC(=O)c1cc2ccccc2s1)c1ccccc1 (configuration not stated)
